Assay results reported in patent US20230017786A1, “DEXTR[…] A DISEASE-MODIFYING TREATMENT FOR NEUROPSYCHIATRIC DISORDERS AND DISEASES” (priority 2020, published 2023).

Assays:
Format in all cases: cell-based
[1] = target: T1, human NMDA receptor GluN1-GluN2A (Homo sapiens, UniProt Q05586+Q12879); assay: FLIPR calcium assay, quinolinic acid, gentamicin, dextromethadone (Example 5 Part II), GluN1-GluN2A-CHO; parameters: calcium response (mean±SEM): unit not given here
T1 construct: expressed in transfected cells; host or cells: CHO
T1 sequence (Q12879 23-1464, other chains not shown): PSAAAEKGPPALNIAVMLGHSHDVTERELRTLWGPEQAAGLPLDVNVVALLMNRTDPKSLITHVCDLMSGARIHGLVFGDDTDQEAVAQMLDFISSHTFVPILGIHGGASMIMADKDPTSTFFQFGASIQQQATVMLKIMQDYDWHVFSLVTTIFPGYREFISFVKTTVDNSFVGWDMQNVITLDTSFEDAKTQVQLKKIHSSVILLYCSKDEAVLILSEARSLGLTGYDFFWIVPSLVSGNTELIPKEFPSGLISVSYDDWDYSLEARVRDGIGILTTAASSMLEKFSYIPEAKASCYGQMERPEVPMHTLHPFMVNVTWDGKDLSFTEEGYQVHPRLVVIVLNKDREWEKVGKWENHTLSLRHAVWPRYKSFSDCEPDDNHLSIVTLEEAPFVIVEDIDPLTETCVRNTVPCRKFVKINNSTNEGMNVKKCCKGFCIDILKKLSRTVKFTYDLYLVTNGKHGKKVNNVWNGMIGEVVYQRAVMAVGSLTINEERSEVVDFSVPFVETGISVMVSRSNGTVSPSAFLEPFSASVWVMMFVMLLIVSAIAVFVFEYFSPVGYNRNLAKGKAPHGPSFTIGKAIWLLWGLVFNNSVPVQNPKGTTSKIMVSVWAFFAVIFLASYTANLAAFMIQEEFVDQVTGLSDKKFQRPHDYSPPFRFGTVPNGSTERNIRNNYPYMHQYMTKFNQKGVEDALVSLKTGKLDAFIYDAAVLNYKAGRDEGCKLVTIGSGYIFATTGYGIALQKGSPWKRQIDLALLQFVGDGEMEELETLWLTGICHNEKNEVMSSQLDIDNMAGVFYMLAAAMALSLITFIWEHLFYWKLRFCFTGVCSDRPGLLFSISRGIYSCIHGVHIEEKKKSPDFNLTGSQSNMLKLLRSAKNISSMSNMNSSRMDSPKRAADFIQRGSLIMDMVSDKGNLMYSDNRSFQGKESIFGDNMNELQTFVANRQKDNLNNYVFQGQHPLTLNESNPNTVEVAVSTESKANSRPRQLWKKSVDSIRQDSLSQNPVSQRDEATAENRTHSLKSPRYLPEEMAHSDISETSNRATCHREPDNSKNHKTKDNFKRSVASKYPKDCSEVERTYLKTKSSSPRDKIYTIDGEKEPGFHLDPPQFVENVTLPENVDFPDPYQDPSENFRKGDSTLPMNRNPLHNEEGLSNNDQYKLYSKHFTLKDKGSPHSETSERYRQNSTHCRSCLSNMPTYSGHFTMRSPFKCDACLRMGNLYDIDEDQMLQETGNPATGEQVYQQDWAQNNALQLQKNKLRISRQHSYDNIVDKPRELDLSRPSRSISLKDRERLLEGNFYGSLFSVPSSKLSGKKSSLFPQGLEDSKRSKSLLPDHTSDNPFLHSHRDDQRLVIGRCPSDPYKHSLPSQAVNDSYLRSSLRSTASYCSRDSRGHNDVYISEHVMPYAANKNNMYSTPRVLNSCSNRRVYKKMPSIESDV
Protocol: (§1) Quinolinic acid or gentamicin CRCs were also produced, in presence of 10 μM glycine.
(§2) Test items were evaluated in FLIPR for their ability to modulate, alone or in combination, calcium entry in presence of […], using four CHO cell lines expressing diheteromeric human NMDA receptor (NMDAR): GluN-/GluN2A-CHO, GluN1-GluN2B-CHO, GluN1-GluN2C-CHO, GluN1-GluN2D-CHO.
(§3) The first aim of the study was to evaluate quinolinic acid or gentamicin CRC effect in the presence of 10 μM glycine.
(§4) FLIPR determination of intracellular calcium level was used as a read-out for NMDAR activation.
(§5) 400× compound plate was stored at −20° C. till FLIPR experimental day.
(§6) A 4× compound plate was generated from 400× compound plate by addition of up to 30 μl/well of compound buffer on FLIPR experimental day.
(§7) A FLIPR system was used to monitor intracellular calcium level in NMDAR cell lines, pre-loaded for 1 hour with Fluo-4, and then washed with assay buffer.
(§8) Y=Bottom+(Top−Bottom)/(1+10^((LogEC50−X)*HillSlope))
(§9) Test item CRC data were plotted by Prism 8 GraphPad software, in the different experimental conditions. And, column analysis, performed by Prism 8 GraphPad software, was one way ANOVA followed by Tukey's multiple comparisons test, with a single pooled variance.

[2] = target: T2, human NMDA receptor GluN1-GluN2B (Homo sapiens, UniProt Q05586+Q13224); assay: FLIPR calcium assay, quinolinic acid, gentamicin, dextromethadone (Example 5 Part II), GluN1-GluN2B-CHO
T2 construct: expressed in transfected cells; host or cells: CHO
Protocol: as §1, §2, §3, §4, §5, §6, §7, §8, §9

[3] = target: T3, human NMDA receptor GluN1-GluN2D (Homo sapiens, UniProt O15399+Q05586); assay: FLIPR calcium assay, quinolinic acid, gentamicin, dextromethadone (Example 5 Part II), GluN1-GluN2D-CHO
T3 construct: expressed in transfected cells; host or cells: CHO
Protocol: as §1, §2, §3, §4, §5, §6, §7, §8, §9

[4] = target: T4, recombinant human NMDAR GluN1 plus GluN2A (Homo sapiens, UniProt Q05586+Q12879); assay: FLIPR calcium assay, gentamicin as PAM (Example 5 Part I), GluN2A cell line; conditions: 10 μM test item; dextromethadone in presence and absence of 10 μM gentamicin
T4 construct: expressed in transfected cells; host or cells: CHO
T4 sequence (Q12879 23-1464, other chains not shown): as above
From the text: (§10) A FLIPR calcium assay was used to profile gentamicin using stable cell lines expressing diheteromeric recombinant human NMDARs, containing GluN1 plus one amongst GluN2A, GluN2B, GluN2C or GluN2D subunit.

[5] = target: T5, human NMDA receptor GluN1-GluN2C (Homo sapiens, UniProt Q05586+Q14957); assay: FLIPR calcium assay, quinolinic acid, gentamicin, dextromethadone (Example 5 Part II), GluN1-GluN2C-CHO
T5 construct: expressed in transfected cells; host or cells: CHO
T5 sequence (Q14957 20-1233, other chains not shown): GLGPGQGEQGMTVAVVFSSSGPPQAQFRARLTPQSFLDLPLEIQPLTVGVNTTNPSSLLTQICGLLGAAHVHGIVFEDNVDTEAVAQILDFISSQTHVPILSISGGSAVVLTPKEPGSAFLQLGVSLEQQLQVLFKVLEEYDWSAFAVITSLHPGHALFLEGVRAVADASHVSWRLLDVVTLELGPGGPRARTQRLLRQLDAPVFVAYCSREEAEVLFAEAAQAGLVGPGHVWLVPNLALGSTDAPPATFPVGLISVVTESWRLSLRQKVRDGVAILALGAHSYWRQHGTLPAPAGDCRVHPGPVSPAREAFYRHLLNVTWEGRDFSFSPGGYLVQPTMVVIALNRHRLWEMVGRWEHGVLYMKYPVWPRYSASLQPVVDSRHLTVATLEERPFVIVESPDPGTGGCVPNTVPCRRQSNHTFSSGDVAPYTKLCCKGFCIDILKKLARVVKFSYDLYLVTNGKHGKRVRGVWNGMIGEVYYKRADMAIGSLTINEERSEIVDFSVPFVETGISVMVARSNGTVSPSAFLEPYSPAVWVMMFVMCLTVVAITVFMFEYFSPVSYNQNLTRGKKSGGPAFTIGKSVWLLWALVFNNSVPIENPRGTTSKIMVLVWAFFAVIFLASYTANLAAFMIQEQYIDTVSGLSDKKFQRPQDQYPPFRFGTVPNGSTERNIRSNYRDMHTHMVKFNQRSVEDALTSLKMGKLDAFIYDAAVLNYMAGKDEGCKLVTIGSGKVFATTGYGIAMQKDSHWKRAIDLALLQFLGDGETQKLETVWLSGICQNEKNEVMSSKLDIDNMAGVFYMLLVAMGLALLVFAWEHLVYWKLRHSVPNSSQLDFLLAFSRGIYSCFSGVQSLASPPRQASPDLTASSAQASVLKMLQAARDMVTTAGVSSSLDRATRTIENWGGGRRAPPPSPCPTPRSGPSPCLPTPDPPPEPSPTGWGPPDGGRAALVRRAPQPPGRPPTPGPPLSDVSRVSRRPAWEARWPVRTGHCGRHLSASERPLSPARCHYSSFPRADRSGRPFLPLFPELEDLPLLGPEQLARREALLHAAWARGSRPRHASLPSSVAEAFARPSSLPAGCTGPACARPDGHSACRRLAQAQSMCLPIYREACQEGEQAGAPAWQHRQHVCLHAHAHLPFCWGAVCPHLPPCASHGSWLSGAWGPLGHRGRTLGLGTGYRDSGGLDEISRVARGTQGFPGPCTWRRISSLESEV
Protocol: as §1, §2, §3, §4, §5, §6, §7, §8, §9

[6] = target: T6, recombinant human NMDAR GluN1 plus GluN2C (Homo sapiens, UniProt Q05586+Q14957); assay: FLIPR calcium assay, gentamicin as PAM (Example 5 Part I), GluN2C cell line; conditions: 10 μM test item; dextromethadone in presence and absence of 10 μM gentamicin
T6 construct: expressed in transfected cells; host or cells: CHO
T6 sequence (Q14957 20-1233, other chains not shown): as above
From the text: as §10

[7] = target: T7, recombinant human NMDAR GluN1 plus GluN2B (Homo sapiens, UniProt Q05586+Q13224); assay: FLIPR calcium assay, gentamicin as PAM (Example 5 Part I), GluN2B cell line; conditions: 10 μM test item; dextromethadone in presence and absence of 10 μM gentamicin
T7 construct: expressed in transfected cells; host or cells: CHO
From the text: as §10

[8] = target: T8, recombinant human NMDAR GluN1 plus GluN2D (Homo sapiens, UniProt O15399+Q05586); assay: FLIPR calcium assay, gentamicin as PAM (Example 5 Part I), GluN2D cell line; conditions: 10 μM test item; dextromethadone in presence and absence of 10 μM gentamicin
T8 construct: expressed in transfected cells; host or cells: CHO
From the text: as §10

[9] = CRC in presence of 10 μM glycine
[10] = CRC in presence of 10 μM glycine, no glutamate
[11] = gentamicin CRC, max 100, 10 μM glycine

Substance: Gentamicin sulfate
- EC50 ([1]; 10 μM glycine): >100 µg/mL
- % effect on calcium entry, 1000 μM quinolinic acid plus gentamicin ([1]; 10 μg/ml gentamicin, 10 μM glycine): 47±1.1%
- calcium response (mean±SEM) ([1]; 1000 μM QA + 10 μg/ml GENT, 10 μM glycine, GluN2A, n=42): 47 ± 1.1
- Minimal response (%) [1, 9]: −3.3%
- pEC50 [1, 10]: <4
- Response at max conc (%) [1, 11]: 0.1%
- EC50 ([2]; 10 μM glycine): >100 µg/mL
- calcium response (mean±SEM) ([2]; 1000 μM QA + 10 μg/ml GENT, 10 μM glycine, GluN2B, n=42): 37 ± 1.4
- Minimal response (%) [2, 9]: −3.7%
- pEC50 [2, 10]: <4
- Response at max conc (%) [2, 11]: 0.7%
- EC50 ([3]; 10 μM glycine): >100 µg/mL
- calcium response (mean±SEM) ([3]; 1000 μM QA + 10 μg/ml GENT, 10 μM glycine, GluN2D, n=42): 53 ± 1.7
- Minimal response (%) [3, 9]: −3.2%
- pEC50 [3, 10]: <4
- Response at max conc (%) [3, 11]: 1.0%
- calcium entry induced by 0.04 μM L-glutamate [4]: significantly increased
- calcium entry induced by 0.2 μM L-glutamate [4]: significantly increased
- calcium entry induced by 10 μM L-glutamate [4]: significantly decreased
- EC50 ([5]; 10 μM glycine): >100 µg/mL
- calcium response (mean±SEM) ([5]; 1000 μM QA + 10 μg/ml GENT, 10 μM glycine, GluN2C, n=42): 5.6 ± 0.4
- Minimal response (%) [5, 9]: −8.2%
- pEC50 [5, 10]: <4
- Response at max conc (%) [5, 11]: 0.03%
- calcium entry induced by 0.04 μM L-glutamate [6]: significantly increased
- calcium entry induced by 10 μM L-glutamate [6]: significantly decreased
- calcium entry induced by 0.04 μM L-glutamate [7]: significantly increased
- calcium entry induced by 0.2 μM L-glutamate [7]: significantly increased
- calcium entry induced by 10 μM L-glutamate [7]: did not modify
- calcium entry induced by 0.04 μM L-glutamate [8]: significantly increased
- calcium entry induced by 0.2 μM L-glutamate [8]: decreased calcium entry
- calcium entry induced by 10 μM L-glutamate [8]: did not modify
